Laboratory results taken from ChEMBL document CHEMBL1149703 (Bioorg Med Chem Lett, 2007).
pIC50: −log10 of the molar value.

Assays:
[1] = molecular target: Protein kinase C zeta type (Homo sapiens) (UniProt Q05513); test: Inhibition of PKCzeta assessed as residual activity at 0.01 uM
[2] = molecular target: Tyrosine-protein kinase CSK (Homo sapiens) (UniProt P41240); test: Inhibition of CSK assessed as residual activity at 1 uM
[3] = molecular target: Maternal embryonic leucine zipper kinase (Homo sapiens) (UniProt Q14680); test: Inhibition of MELK assessed as residual activity at 0.01 uM
[4] = molecular target: Ribosomal protein S6 kinase alpha-1 (Homo sapiens) (UniProt Q15418); test: Inhibition of RSK1 assessed as residual activity at 1 uM
[5] = molecular target: Glycogen synthase kinase-3 beta (Homo sapiens) (UniProt P49841); test: Inhibition of GSK3-beta assessed as residual activity at 0.01 uM
[6] = molecular target: Protein kinase C alpha type (Homo sapiens) (UniProt P17252); test: Inhibition of PKCalpha assessed as residual activity at 1 uM
[7] = molecular target: RAC-beta serine/threonine-protein kinase (Homo sapiens) (UniProt P31751); test: Inhibition of PKBbeta assessed as residual activity at 0.01 uM
[8] = molecular target: Protein kinase C zeta type (Homo sapiens) (UniProt Q05513); test: Inhibition of PKCzeta assessed as residual activity at 1 uM
[9] = molecular target: Serine/threonine-protein kinase pim-2 (Homo sapiens) (UniProt Q9P1W9); test: Inhibition of PIM2 assessed as residual activity at 0.01 uM
[10] = molecular target: Serine/threonine-protein kinase Sgk1 (Homo sapiens) (UniProt O00141); test: Inhibition of SGK1 assessed as residual activity at 0.01 uM
[11] = molecular target: Ribosomal protein S6 kinase alpha-1 (Homo sapiens) (UniProt Q15418); test: Inhibition of RSK1 assessed as residual activity at 0.01 uM
[12] = molecular target: Serine/threonine-protein kinase pim-2 (Homo sapiens) (UniProt Q9P1W9); test: Inhibition of PIM2 assessed as residual activity at 1 uM
[13] = molecular target: Ribosomal protein S6 kinase beta-1 (Homo sapiens) (UniProt P23443); test: Inhibition of S6K1 assessed as residual activity at 0.01 uM
[14] = molecular target: Proto-oncogene tyrosine-protein kinase Src (Homo sapiens) (UniProt P12931); test: Inhibition of Src assessed as residual activity at 1 uM
[15] = molecular target: Mitogen-activated protein kinase 3 (Homo sapiens) (UniProt P27361); test: Inhibition of ERK1 assessed as residual activity at 0.01 uM
[16] = molecular target: 3-phosphoinositide-dependent protein kinase 1 (Homo sapiens) (UniProt O15530); test: Inhibition of PDK1 assessed as residual activity at 1 uM
[17] = molecular target: MAP kinase-activated protein kinase 5 (Homo sapiens) (UniProt Q8IW41); test: Inhibition of PRAK assessed as residual activity at 0.01 uM
[18] = molecular target: MAP kinase-activated protein kinase 3 (Homo sapiens) (UniProt Q16644); test: Inhibition of MAPKAP K3 assessed as residual activity at 0.01 uM
Homo sapiens [19] = species on record: Homo sapiens; test: Inhibition of CDK2/cyclin A assessed as residual activity at 0.01 uM
[20] = molecular target: Ribosomal protein S6 kinase alpha-3 (Homo sapiens) (UniProt P51812); test: Inhibition of RSK2 assessed as residual activity at 0.01 uM
[21] = molecular target: Dual specificity tyrosine-phosphorylation-regulated kinase 3 (Homo sapiens) (UniProt O43781); test: Inhibition of DYRK3 assessed as residual activity at 1 uM
[22] = molecular target: MAP kinase-activated protein kinase 5 (Homo sapiens) (UniProt Q8IW41); test: Inhibition of PRAK assessed as residual activity at 1 uM
[23] = molecular target: Serine/threonine-protein kinase Sgk1 (Homo sapiens) (UniProt O00141); test: Inhibition of SGK1 assessed as residual activity at 1 uM
[24] = molecular target: T1, AMP-activated protein kinase, AMPK (Homo sapiens) (UniProt P54646+O43741+P54619+Q9UGJ0+Q9Y478+Q13131+Q9UGI9); test: Inhibition of AMPK assessed as residual activity at 1 uM; assay type: protein-complex assay
[25] = molecular target: T2, Casein kinase II (Homo sapiens) (UniProt P67870+P68400+P19784); test: Inhibition of CK2 assessed as residual activity at 1 uM; assay type: protein-complex assay
Homo sapiens [26] = species on record: Homo sapiens; test: Inhibition of CDK2/cyclin A assessed as residual activity at 1 uM
Homo sapiens [27] = species on record: Homo sapiens; test: Inhibition of PKA assessed as residual activity at 1 uM
[28] = molecular target: Serine/threonine-protein kinase N2 (Homo sapiens) (UniProt Q16513); test: Inhibition of PRK2 assessed as residual activity at 1 uM
[29] = molecular target: Mitogen-activated protein kinase 10 (Homo sapiens) (UniProt P53779); test: Inhibition of JNK3 assessed as residual activity at 1 uM
[30] = molecular target: RAC-alpha serine/threonine-protein kinase (Homo sapiens) (UniProt P31749); test: Inhibition of PKBalpha assessed as residual activity at 1 uM
[31] = molecular target: Ribosomal protein S6 kinase beta-1 (Homo sapiens) (UniProt P23443); test: Inhibition of S6K1 assessed as residual activity at 1 uM
[32] = molecular target: RAC-beta serine/threonine-protein kinase (Homo sapiens) (UniProt P31751); test: Inhibition of PKBbeta assessed as residual activity at 1 uM
[33] = molecular target: Calcium/calmodulin-dependent protein kinase type 1 (Homo sapiens) (UniProt Q14012); test: Inhibition of CAMK1 assessed as residual activity at 0.01 uM
[34] = molecular target: Ribosomal protein S6 kinase alpha-3 (Homo sapiens) (UniProt P51812); test: Inhibition of RSK2 assessed as residual activity at 1 uM
[35] = molecular target: Serine/threonine-protein kinase D1 (Homo sapiens) (UniProt Q15139); test: Inhibition of PKD1 assessed as residual activity at 1 uM
[36] = molecular target: 3-phosphoinositide-dependent protein kinase 1 (Homo sapiens) (UniProt O15530); test: Inhibition of PDK1 assessed as residual activity at 0.01 uM
[37] = molecular target: Serine/threonine-protein kinase D1 (Homo sapiens) (UniProt Q15139); test: Inhibition of PKD1 assessed as residual activity at 0.01 uM
[38] = molecular target: Serine/threonine-protein kinase pim-1 (Homo sapiens) (UniProt P11309); test: Inhibition of PIM1 assessed as residual activity at 1 uM
[39] = molecular target: Serine/threonine-protein kinase Chk1 (Homo sapiens) (UniProt O14757); test: Inhibition of CHK1 assessed as residual activity at 1 uM
Homo sapiens [40] = species on record: Homo sapiens; test: Inhibition of PKA assessed as residual activity at 0.01 uM
[41] = molecular target: Tyrosine-protein kinase Lck (Homo sapiens) (UniProt P06239); test: Inhibition of Lck assessed as residual activity at 0.01 uM
[42] = molecular target: T2, Casein kinase II (Homo sapiens); test: Inhibition of CK2 assessed as residual activity at 0.1 uM; assay type: protein-complex assay
[43] = molecular target: MAP kinase-activated protein kinase 3 (Homo sapiens) (UniProt Q16644); test: Inhibition of MAPKAP K3 assessed as residual activity at 1 uM
[44] = molecular target: Serine/threonine-protein kinase PAK 5 (Homo sapiens) (UniProt Q9P286); test: Inhibition of PAK5 assessed as residual activity at 0.01 uM
[45] = molecular target: Maternal embryonic leucine zipper kinase (Homo sapiens) (UniProt Q14680); test: Inhibition of MELK assessed as residual activity at 1 uM
[46] = molecular target: Mitogen-activated protein kinase 3 (Homo sapiens) (UniProt P27361); test: Inhibition of ERK1 assessed as residual activity at 1 uM
[47] = molecular target: Proto-oncogene tyrosine-protein kinase Src (Homo sapiens) (UniProt P12931); test: Inhibition of Src assessed as residual activity at 0.01 uM
[48] = molecular target: Serine/threonine-protein kinase pim-1 (Homo sapiens) (UniProt P11309); test: Inhibition of PIM1 assessed as residual activity at 0.01 uM
[49] = molecular target: Glycogen synthase kinase-3 beta (Homo sapiens) (UniProt P49841); test: Inhibition of GSK3-beta assessed as residual activity at 1 uM
[50] = molecular target: Serine/threonine-protein kinase PAK 5 (Homo sapiens) (UniProt Q9P286); test: Inhibition of PAK5 assessed as residual activity at 1 uM
[51] = molecular target: RAC-alpha serine/threonine-protein kinase (Homo sapiens) (UniProt P31749); test: Inhibition of PKBalpha assessed as residual activity at 0.01 uM
[52] = molecular target: Dual specificity tyrosine-phosphorylation-regulated kinase 3 (Homo sapiens) (UniProt O43781); test: Inhibition of DYRK3 assessed as residual activity at 0.01 uM
[53] = molecular target: Aurora kinase B (Homo sapiens) (UniProt Q96GD4); test: Inhibition of AURORA B assessed as residual activity at 1 uM
[54] = molecular target: Aurora kinase B (Homo sapiens) (UniProt Q96GD4); test: Inhibition of AURORA B assessed as residual activity at 0.01 uM
[55] = molecular target: Calcium/calmodulin-dependent protein kinase type 1 (Homo sapiens) (UniProt Q14012); test: Inhibition of CAMK1 assessed as residual activity at 1 uM
[56] = molecular target: Tyrosine-protein kinase Lck (Homo sapiens) (UniProt P06239); test: Inhibition of Lck assessed as residual activity at 1 uM
[57] = molecular target: Mitogen-activated protein kinase 10 (Homo sapiens) (UniProt P53779); test: Inhibition of JNK3 assessed as residual activity at 0.01 uM
[58] = molecular target: Serine/threonine-protein kinase Chk1 (Homo sapiens) (UniProt O14757); test: Inhibition of CHK1 assessed as residual activity at 0.01 uM
[59] = molecular target: T1, AMP-activated protein kinase, AMPK (Homo sapiens); test: Inhibition of AMPK assessed as residual activity at 0.01 uM; assay type: protein-complex assay
[60] = molecular target: Serine/threonine-protein kinase Nek6 (Homo sapiens) (UniProt Q9HC98); test: Inhibition of NEK6 assessed as residual activity at 0.01 uM
[61] = molecular target: Serine/threonine-protein kinase N2 (Homo sapiens) (UniProt Q16513); test: Inhibition of PRK2 assessed as residual activity at 0.01 uM
[62] = molecular target: Protein kinase C alpha type (Homo sapiens) (UniProt P17252); test: Inhibition of PKCalpha assessed as residual activity at 0.01 uM
[63] = molecular target: Tyrosine-protein kinase CSK (Homo sapiens) (UniProt P41240); test: Inhibition of CSK assessed as residual activity at 0.01 uM
[64] = molecular target: Serine/threonine-protein kinase Nek6 (Homo sapiens) (UniProt Q9HC98); test: Inhibition of NEK6 assessed as residual activity at 1 uM; assay type: functional
[65] = molecular target: cAMP-dependent protein kinase catalytic subunit alpha (Homo sapiens, UniProt P17612); test: Inhibition of cAPK Calpha in presence of 1 mM ATP

Serine/threonine-protein kinase Nek6 (Homo sapiens), sequence (Q9HC98 whole entry): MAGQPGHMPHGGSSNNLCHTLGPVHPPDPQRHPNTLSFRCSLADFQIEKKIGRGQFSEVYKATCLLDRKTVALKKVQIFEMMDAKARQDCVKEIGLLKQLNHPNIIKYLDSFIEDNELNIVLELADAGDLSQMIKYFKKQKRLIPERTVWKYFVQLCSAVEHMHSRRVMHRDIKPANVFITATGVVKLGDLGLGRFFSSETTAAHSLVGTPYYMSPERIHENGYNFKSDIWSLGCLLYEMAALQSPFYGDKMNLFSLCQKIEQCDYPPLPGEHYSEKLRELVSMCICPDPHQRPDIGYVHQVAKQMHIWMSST
Glycogen synthase kinase-3 beta (Homo sapiens), sequence (P49841 whole entry, looked up): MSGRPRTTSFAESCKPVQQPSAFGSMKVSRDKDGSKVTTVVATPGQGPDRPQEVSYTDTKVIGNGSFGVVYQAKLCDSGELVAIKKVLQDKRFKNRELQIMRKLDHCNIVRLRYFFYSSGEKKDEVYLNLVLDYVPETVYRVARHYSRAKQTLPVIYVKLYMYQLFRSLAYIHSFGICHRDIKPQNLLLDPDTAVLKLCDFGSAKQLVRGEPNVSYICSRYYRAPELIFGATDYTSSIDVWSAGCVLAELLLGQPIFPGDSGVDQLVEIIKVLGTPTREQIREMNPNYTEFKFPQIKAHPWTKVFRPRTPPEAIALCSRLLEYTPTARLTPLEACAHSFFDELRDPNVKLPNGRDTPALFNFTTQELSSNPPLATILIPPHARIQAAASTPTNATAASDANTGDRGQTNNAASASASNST
Tyrosine-protein kinase CSK (Homo sapiens), sequence (P41240 2-450 limits assumed): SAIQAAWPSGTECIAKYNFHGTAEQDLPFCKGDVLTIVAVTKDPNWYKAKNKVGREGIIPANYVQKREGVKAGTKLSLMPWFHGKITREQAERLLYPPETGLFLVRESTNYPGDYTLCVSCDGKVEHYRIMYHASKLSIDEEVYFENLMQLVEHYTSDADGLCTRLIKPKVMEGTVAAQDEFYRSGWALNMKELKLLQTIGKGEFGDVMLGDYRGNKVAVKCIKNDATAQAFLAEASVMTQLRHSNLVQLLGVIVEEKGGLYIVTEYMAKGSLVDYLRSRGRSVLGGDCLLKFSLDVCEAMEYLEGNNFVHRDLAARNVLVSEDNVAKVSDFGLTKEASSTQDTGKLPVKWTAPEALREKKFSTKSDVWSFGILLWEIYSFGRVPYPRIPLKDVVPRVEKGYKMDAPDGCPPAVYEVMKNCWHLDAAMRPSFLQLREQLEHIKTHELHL
MAP kinase-activated protein kinase 5 (Homo sapiens), sequence (Q8IW41 whole entry): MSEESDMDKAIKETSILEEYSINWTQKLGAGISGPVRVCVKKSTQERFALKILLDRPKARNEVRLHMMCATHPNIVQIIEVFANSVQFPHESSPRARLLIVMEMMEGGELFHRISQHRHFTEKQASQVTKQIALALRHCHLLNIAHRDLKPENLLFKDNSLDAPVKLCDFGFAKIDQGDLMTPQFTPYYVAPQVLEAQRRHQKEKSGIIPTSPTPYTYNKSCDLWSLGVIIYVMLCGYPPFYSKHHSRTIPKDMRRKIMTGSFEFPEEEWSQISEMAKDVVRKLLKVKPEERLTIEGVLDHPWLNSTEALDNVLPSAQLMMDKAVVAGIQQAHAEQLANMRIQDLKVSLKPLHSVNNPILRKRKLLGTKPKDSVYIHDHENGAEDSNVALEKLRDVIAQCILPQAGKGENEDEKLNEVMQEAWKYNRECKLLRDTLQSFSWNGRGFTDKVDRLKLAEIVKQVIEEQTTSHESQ
RAC-alpha serine/threonine-protein kinase (Homo sapiens), sequence (P31749 whole entry): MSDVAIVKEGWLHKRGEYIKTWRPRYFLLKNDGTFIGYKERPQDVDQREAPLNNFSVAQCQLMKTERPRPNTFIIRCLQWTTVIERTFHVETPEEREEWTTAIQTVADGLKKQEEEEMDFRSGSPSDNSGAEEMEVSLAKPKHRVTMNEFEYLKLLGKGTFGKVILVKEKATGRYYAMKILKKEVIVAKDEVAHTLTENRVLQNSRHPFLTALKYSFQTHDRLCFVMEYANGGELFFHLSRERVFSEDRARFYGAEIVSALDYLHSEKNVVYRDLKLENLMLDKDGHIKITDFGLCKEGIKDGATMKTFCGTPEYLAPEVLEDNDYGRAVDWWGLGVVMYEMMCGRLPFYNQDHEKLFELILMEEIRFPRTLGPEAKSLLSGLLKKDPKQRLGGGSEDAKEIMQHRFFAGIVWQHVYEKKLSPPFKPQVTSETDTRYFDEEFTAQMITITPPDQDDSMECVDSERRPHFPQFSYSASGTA
Serine/threonine-protein kinase pim-2 (Homo sapiens), sequence (Q9P1W9 whole entry, looked up): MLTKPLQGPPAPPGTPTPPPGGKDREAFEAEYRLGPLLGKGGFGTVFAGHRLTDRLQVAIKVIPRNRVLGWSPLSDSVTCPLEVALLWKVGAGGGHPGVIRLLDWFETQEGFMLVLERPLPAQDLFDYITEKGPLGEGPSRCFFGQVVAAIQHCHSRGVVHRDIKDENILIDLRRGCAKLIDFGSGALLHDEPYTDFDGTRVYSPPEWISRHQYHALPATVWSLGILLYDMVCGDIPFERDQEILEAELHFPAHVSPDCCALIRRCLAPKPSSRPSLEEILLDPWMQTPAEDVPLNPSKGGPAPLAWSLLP
Mitogen-activated protein kinase 3 (Homo sapiens), sequence (P27361 whole entry): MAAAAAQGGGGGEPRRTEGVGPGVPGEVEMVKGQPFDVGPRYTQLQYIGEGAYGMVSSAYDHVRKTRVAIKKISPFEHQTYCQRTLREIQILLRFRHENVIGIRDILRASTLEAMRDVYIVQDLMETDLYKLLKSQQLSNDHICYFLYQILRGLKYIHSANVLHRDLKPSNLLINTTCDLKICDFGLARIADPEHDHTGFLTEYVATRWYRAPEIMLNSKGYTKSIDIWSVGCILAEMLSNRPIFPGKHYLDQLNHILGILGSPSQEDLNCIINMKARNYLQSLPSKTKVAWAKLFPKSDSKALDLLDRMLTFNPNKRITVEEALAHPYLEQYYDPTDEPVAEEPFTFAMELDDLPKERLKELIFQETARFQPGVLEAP
Ribosomal protein S6 kinase alpha-3 (Homo sapiens), sequence (P51812 whole entry): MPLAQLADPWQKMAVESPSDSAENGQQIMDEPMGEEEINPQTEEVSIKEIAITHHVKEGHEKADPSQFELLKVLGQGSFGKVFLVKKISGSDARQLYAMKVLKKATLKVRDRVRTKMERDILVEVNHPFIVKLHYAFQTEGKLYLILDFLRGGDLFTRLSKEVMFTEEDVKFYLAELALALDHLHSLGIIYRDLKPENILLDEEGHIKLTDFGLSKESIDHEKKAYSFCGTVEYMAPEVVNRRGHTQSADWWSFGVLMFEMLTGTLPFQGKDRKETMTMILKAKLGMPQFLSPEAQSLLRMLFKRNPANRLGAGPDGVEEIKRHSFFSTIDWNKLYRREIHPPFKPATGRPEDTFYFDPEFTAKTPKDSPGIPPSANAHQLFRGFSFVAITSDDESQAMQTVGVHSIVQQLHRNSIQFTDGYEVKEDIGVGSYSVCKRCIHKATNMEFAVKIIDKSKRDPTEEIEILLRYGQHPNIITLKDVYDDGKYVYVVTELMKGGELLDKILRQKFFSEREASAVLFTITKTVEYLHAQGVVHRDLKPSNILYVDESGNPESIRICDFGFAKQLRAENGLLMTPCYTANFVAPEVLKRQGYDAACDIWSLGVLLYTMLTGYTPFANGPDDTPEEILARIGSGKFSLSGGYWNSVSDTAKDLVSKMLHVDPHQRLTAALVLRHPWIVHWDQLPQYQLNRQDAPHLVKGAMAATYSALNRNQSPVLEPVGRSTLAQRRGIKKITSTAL
Calcium/calmodulin-dependent protein kinase type 1 (Homo sapiens), sequence (Q14012 whole entry, looked up): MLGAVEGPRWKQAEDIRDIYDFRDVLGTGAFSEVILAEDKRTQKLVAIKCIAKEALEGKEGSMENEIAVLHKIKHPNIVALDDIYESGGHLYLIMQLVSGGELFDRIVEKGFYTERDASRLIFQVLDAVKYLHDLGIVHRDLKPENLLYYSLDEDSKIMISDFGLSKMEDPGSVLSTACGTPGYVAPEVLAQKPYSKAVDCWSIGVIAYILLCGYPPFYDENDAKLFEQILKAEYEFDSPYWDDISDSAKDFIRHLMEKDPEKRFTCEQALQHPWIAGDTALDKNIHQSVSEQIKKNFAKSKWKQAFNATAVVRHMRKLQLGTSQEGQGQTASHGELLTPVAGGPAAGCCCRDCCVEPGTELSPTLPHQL
Dual specificity tyrosine-phosphorylation-regulated kinase 3 (Homo sapiens), sequence (O43781 whole entry): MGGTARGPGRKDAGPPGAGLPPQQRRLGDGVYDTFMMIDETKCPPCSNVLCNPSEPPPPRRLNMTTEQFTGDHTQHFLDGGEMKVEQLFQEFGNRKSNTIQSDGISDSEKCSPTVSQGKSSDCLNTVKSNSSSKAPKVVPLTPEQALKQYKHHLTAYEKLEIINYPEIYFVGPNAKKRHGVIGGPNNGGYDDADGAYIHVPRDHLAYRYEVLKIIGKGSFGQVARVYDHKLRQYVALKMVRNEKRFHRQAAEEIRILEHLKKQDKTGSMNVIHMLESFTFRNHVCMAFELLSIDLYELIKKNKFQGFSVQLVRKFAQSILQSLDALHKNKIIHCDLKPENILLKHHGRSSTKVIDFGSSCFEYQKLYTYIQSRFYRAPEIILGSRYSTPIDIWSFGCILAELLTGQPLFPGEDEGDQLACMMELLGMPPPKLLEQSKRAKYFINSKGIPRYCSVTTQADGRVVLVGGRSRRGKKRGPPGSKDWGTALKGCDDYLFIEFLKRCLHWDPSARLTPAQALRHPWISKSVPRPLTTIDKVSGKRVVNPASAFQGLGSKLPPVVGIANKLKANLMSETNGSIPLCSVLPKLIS
Serine/threonine-protein kinase Sgk1 (Homo sapiens), sequence (O00141 whole entry): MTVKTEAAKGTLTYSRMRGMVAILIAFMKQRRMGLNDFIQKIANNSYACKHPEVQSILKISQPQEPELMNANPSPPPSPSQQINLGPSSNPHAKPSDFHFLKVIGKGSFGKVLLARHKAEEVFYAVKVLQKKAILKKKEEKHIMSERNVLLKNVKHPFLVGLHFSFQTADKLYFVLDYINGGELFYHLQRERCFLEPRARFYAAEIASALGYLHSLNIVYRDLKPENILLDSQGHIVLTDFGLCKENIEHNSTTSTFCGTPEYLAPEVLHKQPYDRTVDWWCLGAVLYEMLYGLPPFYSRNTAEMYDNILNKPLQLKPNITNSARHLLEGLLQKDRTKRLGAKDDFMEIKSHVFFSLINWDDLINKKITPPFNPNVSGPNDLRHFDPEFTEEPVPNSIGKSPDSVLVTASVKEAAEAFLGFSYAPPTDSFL

N=C(N)NCCC[C@H](NC(=O)[C@H](CCCNC(=N)N)NC(=O)[C@H](CCCNC(=N)N)NC(=O)[C@H](CCCNC(=N)N)NC(=O)[C@H](CCCNC(=N)N)NC(=O)[C@H](CCCNC(=N)N)NC(=O)CCCCCNC(=O)[C@@H]1C[C@@H](O)[C@H](n2cnc3c(N)ncnc32)C1)C(N)=O
Activity [1]: 83%
Activity [2]: 77%
Activity [3]: 86%
Activity [4]: 98%
Activity [5]: 82%
Activity [6]: 30%
Activity [7]: 74%
Activity [8]: 33%
Activity [9]: 103%
Activity [10]: 40%
Activity [11]: 98%
Activity [12]: 20%
Activity [13]: 81%
Activity [14]: 84%
Activity [15]: 82%
Activity [16]: 28%
Activity [17]: 88%
Activity [18]: 97%
Activity (Homo sapiens [19]): 103%
Activity [20]: 91%
Activity [21]: 51%
Activity [22]: 96%
Activity [23]: 19%
Activity [24]: 12%
Activity [25]: 88%
Activity (Homo sapiens [26]): 114%
Activity (Homo sapiens [27]): 0%
Activity [28]: 3%
Activity [29]: 104%
Activity [30]: 32%
Activity [31]: 7%
Activity [32]: 2%
Activity [33]: 62%
Activity [34]: 28%
Activity [35]: 73%
Activity [36]: 76%
Activity [37]: 81%
Activity [38]: 6%
Activity [39]: 27%
Activity (Homo sapiens [40]): 7%
Activity [41]: 86%
Activity [42]: 86%
Activity [43]: 91%
Activity [44]: 71%
Activity [45]: 10%
Activity [46]: 84%
Activity [47]: 85%
Activity [48]: 92%
Activity [49]: 88%
Activity [50]: 10%
Activity [51]: 25%
Activity [52]: 81%
Activity [53]: 72%
Activity [54]: 76%
Activity [55]: 19%
Activity [56]: 63%
Activity [57]: 103%
Activity [58]: 84%
Activity [59]: 70%
Activity [60]: 101%
Activity [61]: 59%
Activity [62]: 96%
Activity [63]: 97%
Activity [64]: 111%

COC(=O)[C@H]1C[C@H](O)[C@@H](n2cnc3c(N)ncnc32)C1
pIC50 [65]: < 3.00

COC(=O)[C@@H]1C[C@@H](O)[C@H](n2cnc3c(N)ncnc32)C1
pIC50 [65]: 3.77
